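Briefly, cells in 96-well plates were exposed to five compound concentrations for 48 h, and endpoints were estimated by linear interpolation. GI50 is the concentration that inhibits growth by half. At the TGI there is no net growth.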
Tests used:
Assay in all cases: NCI anticancer screen, dose series, 48 h
T-47D breast = test system: T-47D breast
SF-539 CNS = test system: SF-539 CNS
HCT-15 colon = test system: HCT-15 colon
MDA-MB-435 = test system: MDA-MB-435
HOP-62 NSCLC = test system: HOP-62 NSCLC
MDA-N = test system: MDA-N
ACHN renal = test system: ACHN renal
786-0 renal = test system: 786-0 renal
RPMI-8226 leukemia = test system: RPMI-8226 leukemia
HL-60(TB) leukemia = test system: HL-60(TB) leukemia
HS 578T breast = test system: HS 578T breast

## CCCCCCc1ccc(CCCCCCCC(=O)O)o1
T-47D breast
  TGI: > 100 µM
SF-539 CNS
  TGI: > 100 µM
HCT-15 colon
  TGI: > 100 µM
MDA-MB-435
  TGI: > 100 µM
HOP-62 NSCLC
  TGI: > 100 µM
MDA-N
  TGI: > 100 µM
ACHN renal
  TGI: > 100 µM
786-0 renal
  TGI: > 100 µM
RPMI-8226 leukemia
  TGI: > 100 µM

## Cc1ccc(C)n1-c1ccccc1C1C=Cn2c(=O)oc3c(OC(C)C)c(OC(C)C)c(O)c1c32 (stereo not drawn)
SF-539 CNS
  TGI: > 100 µM
HCT-15 colon
  TGI: > 100 µM
HL-60(TB) leukemia
  TGI: > 100 µM
HS 578T breast
  TGI: > 100 µM
MDA-MB-435
  TGI: 38.6 µM
HOP-62 NSCLC
  TGI: > 100 µM
ACHN renal
  TGI: > 100 µM
786-0 renal
  TGI: > 100 µM
RPMI-8226 leukemia
  TGI: > 100 µM

## CCCN=C1NC(C)=CSC(Nc2ccccc2)=C1C#N
T-47D breast
  TGI: > 100 µM
SF-539 CNS
  TGI: > 100 µM
HCT-15 colon
  TGI: > 100 µM
MDA-MB-435
  TGI: > 100 µM
HOP-62 NSCLC
  TGI: > 100 µM
MDA-N
  TGI: > 100 µM
ACHN renal
  TGI: > 100 µM
786-0 renal
  TGI: > 100 µM
RPMI-8226 leukemia
  TGI: > 100 µM

## O=C1CCCC1CC(CN1CCOCC1)Sc1nnnn1-c1ccccc1 (stereo not drawn)
SF-539 CNS
  TGI: > 100 µM
HL-60(TB) leukemia
  TGI: 82.2 µM
MDA-MB-435
  TGI: > 100 µM
HOP-62 NSCLC
  TGI: > 100 µM
MDA-N
  TGI: > 100 µM
ACHN renal
  TGI: > 100 µM
786-0 renal
  TGI: > 100 µM
RPMI-8226 leukemia
  TGI: > 100 µM

## Cc1ccc2sc3c(NCCCN)nc4ccccc4c3c(=O)c2c1
T-47D breast
  GI50: 1.89 µM
  TGI: 4.57 µM
SF-539 CNS
  GI50: 1.76 µM
  TGI: 3.21 µM
HCT-15 colon
  GI50: 1.61 µM
  TGI: 3.15 µM
HL-60(TB) leukemia
  GI50: 2.05 µM
  TGI: 4.09 µM
HS 578T breast
  GI50: 2.05 µM
  TGI: 5.19 µM
MDA-MB-435
  GI50: 1.82 µM
  TGI: 3.46 µM
ACHN renal
  GI50: 1.71 µM
  TGI: 3.09 µM
RPMI-8226 leukemia
  GI50: 2.41 µM
  TGI: 5.5 µM

## N=C(N)SCc1nc(-c2ccc(Cl)cc2)no1
T-47D breast
  TGI: 29.9 µM
SF-539 CNS
  TGI: 41.4 µM
HCT-15 colon
  TGI: 55.9 µM
HL-60(TB) leukemia
  TGI: 37.1 µM
HS 578T breast
  TGI: > 100 µM
MDA-MB-435
  TGI: 28.4 µM
HOP-62 NSCLC
  TGI: > 100 µM
ACHN renal
  TGI: 27.5 µM
786-0 renal
  TGI: 29.3 µM
RPMI-8226 leukemia
  TGI: 26.8 µM

## COc1cc2nc(-c3cccs3)nc(N3CCN(c4ccccc4)CC3)c2cc1OC
T-47D breast
  TGI: > 100 µM
SF-539 CNS
  TGI: > 100 µM
HCT-15 colon
  TGI: > 100 µM
HL-60(TB) leukemia
  TGI: > 100 µM
HS 578T breast
  TGI: > 100 µM
MDA-MB-435
  TGI: > 100 µM
HOP-62 NSCLC
  TGI: > 100 µM
ACHN renal
  TGI: > 100 µM
786-0 renal
  TGI: > 100 µM
RPMI-8226 leukemia
  TGI: > 100 µM

## C1=CC2C(C3CN(c4ccccc4)N=C13)C1C3C4C=CC21C=CC43 (stereo not drawn)
T-47D breast
  TGI: > 100 µM
SF-539 CNS
  TGI: > 100 µM
HCT-15 colon
  TGI: > 100 µM
HL-60(TB) leukemia
  TGI: > 100 µM
HS 578T breast
  TGI: > 100 µM
MDA-MB-435
  TGI: > 100 µM
HOP-62 NSCLC
  TGI: > 100 µM
ACHN renal
  TGI: > 100 µM
786-0 renal
  TGI: > 100 µM
RPMI-8226 leukemia
  TGI: > 100 µM

## O=c1c(O)c(-c2ccccc2)oc2c(CP(=O)(O)O)cccc12
T-47D breast
  TGI: > 100 µM
SF-539 CNS
  TGI: > 100 µM
HCT-15 colon
  TGI: > 100 µM
MDA-MB-435
  TGI: > 100 µM
HOP-62 NSCLC
  TGI: > 100 µM
MDA-N
  TGI: > 100 µM
786-0 renal
  TGI: > 100 µM

## C=C1c2c(n(S(=O)(=O)c3ccccc3)c3ccccc23)[C@@]2(C(=O)OC)CC3C=CC2N1C3
T-47D breast
  TGI: > 100 µM
SF-539 CNS
  TGI: > 100 µM
HCT-15 colon
  TGI: > 100 µM
HL-60(TB) leukemia
  TGI: > 100 µM
MDA-MB-435
  TGI: > 100 µM
HOP-62 NSCLC
  TGI: > 100 µM
MDA-N
  TGI: > 100 µM
ACHN renal
  TGI: > 100 µM
786-0 renal
  TGI: > 100 µM
RPMI-8226 leukemia
  TGI: > 100 µM

## COc1ccc(/C(=N/O)c2ccccc2C2=Nc3ccccc3C(NCc3ccccc3)O2)cc1C (stereo not drawn)
SF-539 CNS
  TGI: > 100 µM
HCT-15 colon
  TGI: > 100 µM
HL-60(TB) leukemia
  TGI: > 100 µM
HS 578T breast
  TGI: > 100 µM
MDA-MB-435
  TGI: 90.4 µM
HOP-62 NSCLC
  TGI: > 100 µM
MDA-N
  TGI: > 100 µM
ACHN renal
  TGI: > 100 µM
786-0 renal
  TGI: > 100 µM
RPMI-8226 leukemia
  TGI: > 100 µM

## O=C1Sc2ccccc2C(=O)N2CCSC12 (stereo not drawn)
HCT-15 colon
  TGI: > 100 µM
HL-60(TB) leukemia
  TGI: > 100 µM
HOP-62 NSCLC
  TGI: > 100 µM
RPMI-8226 leukemia
  TGI: > 100 µM

## COC(=O)/C=C1\C(CO[Si](C)(C)C(C)(C)C)OC(n2cc(C)c(=O)n(C)c2=O)C1O[Si](C)(C)C(C)(C)C (stereo not drawn)
HCT-15 colon
  TGI: > 100 µM
HS 578T breast
  TGI: > 100 µM
MDA-MB-435
  TGI: > 100 µM
HOP-62 NSCLC
  TGI: > 100 µM
MDA-N
  TGI: > 100 µM
ACHN renal
  TGI: > 100 µM
786-0 renal
  TGI: > 100 µM
RPMI-8226 leukemia
  TGI: > 100 µM

## CC1(C)C2CC3C(C)(C2)C31c1cc(Cl)ccc1N (stereo not drawn)
T-47D breast
  TGI: 26.2 µM
SF-539 CNS
  TGI: 32 µM
HCT-15 colon
  TGI: 23 µM
MDA-MB-435
  TGI: 25.1 µM
HOP-62 NSCLC
  TGI: 29.4 µM
MDA-N
  TGI: 24.7 µM
ACHN renal
  TGI: 29 µM
786-0 renal
  TGI: 28.6 µM
RPMI-8226 leukemia
  TGI: 30 µM

## CCSC12OC3(CCCCCN3C1=O)C1C(=O)N(c3ccccc3)C(=O)C12 (stereo not drawn)
T-47D breast
  TGI: > 100 µM
SF-539 CNS
  TGI: > 100 µM
HCT-15 colon
  TGI: > 100 µM
HL-60(TB) leukemia
  TGI: > 100 µM
HS 578T breast
  TGI: > 100 µM
MDA-MB-435
  TGI: > 100 µM
MDA-N
  TGI: > 100 µM
ACHN renal
  TGI: > 100 µM
786-0 renal
  TGI: > 100 µM

## Cc1cc(C)[n+]2c(c1)C=CC2
SF-539 CNS
  TGI: 79.4 µM
HL-60(TB) leukemia
  TGI: 26.3 µM
HOP-62 NSCLC
  TGI: > 100 µM
ACHN renal
  TGI: > 100 µM
786-0 renal
  TGI: > 100 µM
